Laboratory results from patent US9382426B2, “Water-insoluble coloring compound, ink, thermal transfer recording sheet, and color filter resist composition” (CANON KABUSHIKI KAISHA, priority 2012, dated 2016).

Experiments:
Format in all cases: physicochemical
[1] = Light resistance evaluation of compound: ink image samples on paper, xenon tester; set-up: key to Light resistance ΔE (color difference): ΔE = Euclidean distance of L*a*b* before vs after exposure; conditions: ink image sample on paper; xenon tester 10 hours, 0.39 W/m^2 at 340 nm, 40° C., relative humidity 60%
Protocol: Ink (1) of the present invention was prepared by mixing 5 parts of Compound (1) as the water-insoluble coloring compound of the present invention, 350 parts of toluene, 350 parts of ethyl acetate, and 300 parts of 2-butanone.
Inks (1), (2), (4), (8), (13), (15), (23), (28), (29), and (30) and Comparative Inks (1) and (2) were each applied onto paper for contrast ratio measurement by bar coating (Bar No. 10) and were air-dried overnight to produce image samples. Chromaticity values (L*, a*, b*) in the L*a*b* color system of each image sample were measured with a reflection densitometer SpectroLino (manufactured by Gretag Macbeth AG).
(§1) Each of the image samples produced in the chromaticity measurement was charged in a xenon tester (Atlas Ci4000, manufactured by Suga Test Instruments Co., Ltd.) and was subjected to exposure conditions (irradiance: 0.39 W/m^2 at 340 nm, temperature: 40° C., relative humidity: 60%) for 10 hours. The reflection densities of printed matters were measured before and after the test. The color difference (ΔE) was calculated from the initial chromaticity values a0*, b0*, L0* and the chromaticity values a*, b*, L after the exposure by the following expression: ΔE=√{square root over ((a*−a0*)^2+(b*−b0*)^2+(L*−L0*)^2)} [Math. 1] The evaluation criteria are as follows: • A: ΔE<3.50 • B: 3.50≦ΔE<5.00 • C: 5.00≦ΔE

[2] = Evaluation of light resistance of color filters, xenon tester; conditions: color filter containing the compound; xenon tester 50 hours, 0.39 W/m^2 at 340 nm, 40° C., relative humidity 60%
Protocol: Ink (11) of the present invention was prepared by mixing 12 parts of Compound (1) as the water-insoluble coloring compound of the present invention and 120 parts of cyclohexanone and dispersing the mixture with an attritor (manufactured by Mitsui Mining Co., Ltd.) for 1 hour.
Twenty-two parts of Ink (11) was slowly added to a solution of 6.7 parts of an acrylic copolymer composition (weight average molecular weight Mw: 10000) composed of, as a monomer ratio, 40% by mass of n-butyl methacrylate, 30% by mass of acrylic acid, and 30% by mass of hydroxyethyl methacrylate, 1.3 parts of dipentaerythritol pentaacrylate, and 0.4 parts of 2-benzyl-2-dimethylamino-1-(4-morpholinophenyl)-butanone (photopolymerization initiator) in 96 parts of cyclohexanone, followed by stirring at room temperature for 3 hours. The reaction solution was filtered through a filter of 1.5 μm pore size to yield color filter yellow resist composition (1) of the present invention.
Color filter yellow resist composition (1) was spin-coated on a glass substrate and was then dried at 90° C. for 3 min, and the entire surface was then exposed to light and post-cured at 180° C. to produce color filter (1).
as §1, with “the resulting color filters and” for “the image samples produced in”, “the thermal transfer recording sheets” for “the chromaticity measurement”, “for 50” for “for 10”, “b*, L*” for “b*, L”, “[Math. 2]” for “[Math. 1]”

[3] = Evaluation of light resistance of thermal transfer recording sheets, xenon tester; conditions: thermal transfer recording sheet containing the compound; xenon tester 50 hours, 0.39 W/m^2 at 340 nm, 40° C., relative humidity 60%
Protocol: Ink (14) of the present invention was prepared by gradually adding 5 parts of a polyvinyl butyral resin (Denka 3000-K, manufactured by Denki Kagaku Kogyo K.K.) to a solution of 13.5 parts of Compound (4), as the water-insoluble coloring compound of the present invention, in a mixture of 45 parts of methyl ethyl ketone and 45 parts of toluene with stirring.
Ink (14) was applied onto a polyethylene terephthalate film (Lumirror, manufactured by Toray Industries, Inc.) having a thickness of 4.5 μm so as to have a dried thickness of 1 μm and was dried to produce thermal transfer recording sheet (4).
as §1, with “the resulting color filters and” for “the image samples produced in”, “the thermal transfer recording sheets” for “the chromaticity measurement”, “for 50” for “for 10”, “b*, L*” for “b*, L”, “[Math. 2]” for “[Math. 1]”

Structure (SMILES): Cc1c(/N=N/c2ccccc2)c(O)n(N)c(=O)c1C#N [Comparative Compound (1), reference compound]
- Light resistance ΔE (color difference) [1]: 10.6
- Light resistance ΔE, evaluation grade [1]: C (C: 5.00≦ΔE)
- Light resistance ΔE (color difference) [2]: 12.8
- Light resistance ΔE, evaluation grade [2]: C (C: 5.00≦ΔE)
- Light resistance ΔE (color difference) [3]: 15.1
- Light resistance ΔE, evaluation grade [3]: C (C: 5.00≦ΔE)

Structure (SMILES): CCCCC(CC)CN(CC(CC)CCCC)C(=O)c1cccc(/N=N/c2c(C)c(C#N)c(=O)n(NC(=O)C(CC)CCCC)c2O)c1 (stereo not drawn) [Compound (15)]
- Light resistance ΔE (color difference) [1]: 4.32
- Light resistance ΔE, evaluation grade [1]: B (B: 3.50≦ΔE<5.00)
- Light resistance ΔE (color difference) [2]: 4.21
- Light resistance ΔE, evaluation grade [2]: B (B: 3.50≦ΔE<5.00)

Structure (SMILES): CCCCC(CC)CN(CC(CC)CCCC)C(=O)c1ccc(/N=N/c2c(-c3ccccc3)c(C#N)c(=O)n(NC(=O)c3ccccc3)c2O)cc1 (stereo not drawn) [Compound (8)]
- Light resistance ΔE (color difference) [1]: 2.81
- Light resistance ΔE, evaluation grade [1]: A (A: ΔE<3.50)
- Light resistance ΔE (color difference) [2]: 2.68
- Light resistance ΔE, evaluation grade [2]: A (A: ΔE<3.50)

Structure (SMILES): CCCCC(CC)CN(CC(CC)CCCC)S(=O)(=O)c1ccc(/N=N/c2c(C)c(C#N)c(=O)n(N(C)C(=O)C(C)(C)C)c2O)cc1 (stereo not drawn) [Compound (29)]
- Light resistance ΔE (color difference) [1]: 3.77
- Light resistance ΔE, evaluation grade [1]: B (B: 3.50≦ΔE<5.00)
- Light resistance ΔE (color difference) [3]: 2.56
- Light resistance ΔE, evaluation grade [3]: A (A: ΔE<3.50)

Structure (SMILES): CCCCC(CC)CN(CC(CC)CCCC)C(=O)c1ccccc1/N=N/c1c(C)c(C#N)c(=O)n(N)c1O (stereo not drawn) [Compound (1)]
- Light resistance ΔE (color difference) [1]: 3.64
- Light resistance ΔE, evaluation grade [1]: B (B: 3.50≦ΔE<5.00)
- Light resistance ΔE (color difference) [2]: 2.99
- Light resistance ΔE, evaluation grade [2]: A (A: ΔE<3.50)

Structure (SMILES): CCCCC(CC)CN(CC(CC)CCCC)C(=O)c1cccc(/N=N/c2c(C)c(C#N)c(=O)n(N(C)C)c2O)c1 (stereo not drawn) [Compound (13)]
- Light resistance ΔE (color difference) [1]: 3.98
- Light resistance ΔE, evaluation grade [1]: B (B: 3.50≦ΔE<5.00)
- Light resistance ΔE (color difference) [3]: 3.37
- Light resistance ΔE, evaluation grade [3]: A (A: ΔE<3.50)

Structure (SMILES): CCCCC(CC)CN(CC(CC)CCCC)C(=O)c1ccc(/N=N/c2c(C)c(C#N)c(=O)n(N3CCCCC3)c2O)cc1 (stereo not drawn) [Compound (28)]
- Light resistance ΔE (color difference) [1]: 1.64
- Light resistance ΔE, evaluation grade [1]: A (A: ΔE<3.50)
- Light resistance ΔE (color difference) [3]: 2.32
- Light resistance ΔE, evaluation grade [3]: A (A: ΔE<3.50)

Structure (SMILES): CCCCC(CC)CN(CC(CC)CCCC)C(=O)c1cccc(/N=N/c2c(C)c(C#N)c(=O)n(N)c2O)c1 (stereo not drawn) [Compound (4)]
- Light resistance ΔE (color difference) [1]: 1.70
- Light resistance ΔE, evaluation grade [1]: A (A: ΔE<3.50)
- Light resistance ΔE (color difference) [3]: 2.76
- Light resistance ΔE, evaluation grade [3]: A (A: ΔE<3.50)

Structure (SMILES): CCCCC(CC)CN(CC(CC)CCCC)C(=O)c1ccc(/N=N/c2c(C)c(C#N)c(=O)n(N(CCCC)CCCC)c2O)cc1 (stereo not drawn) [Compound (30)]
- Light resistance ΔE (color difference) [1]: 2.44
- Light resistance ΔE, evaluation grade [1]: A (A: ΔE<3.50)
- Light resistance ΔE (color difference) [3]: 4.89
- Light resistance ΔE, evaluation grade [3]: B (B: 3.50≦ΔE<5.00)

Structure (SMILES): CCCCC(CC)CN(CC(CC)CCCC)S(=O)(=O)c1ccc(/N=N/c2c(C)c(C#N)c(=O)n(N)c2O)cc1 (stereo not drawn) [Compound (23)]
- Light resistance ΔE (color difference) [1]: 2.37
- Light resistance ΔE, evaluation grade [1]: A (A: ΔE<3.50)
- Light resistance ΔE (color difference) [3]: 2.54
- Light resistance ΔE, evaluation grade [3]: A (A: ΔE<3.50)
